25 compounds from patent publication US20080176862A1, “New Compounds 617” (ASTRAZENECA AB, priority 2006, published 2008) can be followed below.

Counter-ions that a name gives are not always drawn.

The target of the first assay is T1, human β-Secretase (soluble part, AA1-AA460; sBACE-Fc) (Homo sapiens, UniProt P56817).
T1 construct: The soluble part of the human β-Secretase (AA1-AA460) was cloned into the ASP2-Fc10-1-IRES-GFP-neoK mammalian expression vector; made in house
T1 sequence (P56817 22-460): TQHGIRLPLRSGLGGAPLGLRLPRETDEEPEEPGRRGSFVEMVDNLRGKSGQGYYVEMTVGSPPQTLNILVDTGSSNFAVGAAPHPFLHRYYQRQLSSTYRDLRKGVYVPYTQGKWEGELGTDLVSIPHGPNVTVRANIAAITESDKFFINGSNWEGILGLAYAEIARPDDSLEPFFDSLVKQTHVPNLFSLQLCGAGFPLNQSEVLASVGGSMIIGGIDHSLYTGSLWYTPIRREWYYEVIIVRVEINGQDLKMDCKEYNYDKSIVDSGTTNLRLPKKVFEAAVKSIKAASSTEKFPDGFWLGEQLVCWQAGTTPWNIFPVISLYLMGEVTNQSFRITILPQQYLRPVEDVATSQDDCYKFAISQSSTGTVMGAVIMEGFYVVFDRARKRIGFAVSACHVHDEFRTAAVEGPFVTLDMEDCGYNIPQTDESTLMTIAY
The experiment in a line: TR-FRET assay. In kind it is biochemical. As to conditions: IC50 (nM) in TR-FRET assay, substrate (Europium)CEVNLDAEFK(Qsy7) 100 nM, pH 4.5, 15 min at RT. On the procedure: The enzyme used in the IGEN Cleavage-, Fluorescent-, TR-FRET- and BiaCore assays is described as follows:
The soluble part of the human β-Secretase (AA1-AA460) was cloned into the ASP2-Fc10-1-IRES-GFP-neoK mammalian expression vector. The gene was fused to the Fc domain of IgG1 (affinity tag) and stably cloned into HEK 293 cells. Purified sBACE-Fc is stored in Tris buffer, pH 9.2 and has a purity of 95%.
Enzyme was diluted to 6 μg/mL and the substrate (Europium)[…](Qsy7) to 200 nM in reaction buffer (NaAcetate, chaps, triton x-100, EDTA pH 4.5). Compounds were diluted to the desired concentration in dimethyl sulfoxide (final dimethyl sulfoxide concentration in assay is 5%). […] Enzyme (9 μL) and 1 μL of compound in dimethyl sulfoxide was added to the plate, mixed and pre-incubated for 10 min. Substrate (10 μL) was added and the reaction proceeded in the dark for 15 min at RT. The reaction was stopped with the addition of 7 μL NaAcetate, pH 9. The fluorescence of the product was measured on a Victor II plate reader with an excitation wavelength of 340 nm and an emission wavelength of 615 nm. […] The dimethyl sulfoxide control defined the 100% activity level and 0% activity was defined by exclusion of the enzyme (using reaction buffer instead).
What is called IC50 is the concentration at which inhibition is half-maximal. As for `COc1cc(Cl)cc(-c2cc(C3(c4cccc(OS(=O)(=O)C(C)C)c4)N=C(N)N(C)C3=O)ccc2F)c1` (centres unmarked) [Example 107, 3-[2-Amino-4-(3′-chloro-6-fluoro-5′-methoxybiphenyl-3-yl)-1-methyl-5-oxo-4,5-dihydro-1H-imidazol-4-yl]phenyl propane-2-sulfonate], the IC50 was 311 nM.

Still in this assay, the particulars now being: substrate (Europium)CEVNLDAEFK(Qsy7) 100 nM, pH 4.5, 15 min at RT.
As to `COc1cc(OS(C)(=O)=O)cc(-c2cc(C3(c4ccccc4)N=C(N)N(C)C3=O)ccc2F)c1` (centres unmarked) [Example 84, 5′-(2-Amino-1-methyl-5-oxo-4-phenyl-4,5-dihydro-1H-imidazol-4-yl)-2′-fluoro-5-methoxybiphenyl-3-yl methanesulfonate], the “IC50 (nM) in TR-FRET assay” value was “inactive”.

Still in this assay, the particulars now being: substrate (Europium)CEVNLDAEFK(Qsy7) 100 nM, pH 4.5, 15 min at RT; read-out: IC50 (nM) in TR-FRET assay.
In the case of `COc1cccc(-c2cc(C3(c4ccc(OS(C)(=O)=O)cc4)N=C(N)N(C)C3=O)ccn2)c1` (centres unmarked) [Example 39, 4-{2-Amino-4-[2-(3-methoxyphenyl)pyridin-4-yl]-1-methyl-5-oxo-4,5-dihydro-1H-imidazol-4-yl}phenyl methanesulfonate 0.25 acetate], the 50% inhibitory concentration (IC50) is 365 nM.
Turning to `CN1C(=O)C(c2ccc(OS(=O)(=O)C(F)(F)F)cc2)(c2ccc(F)c(-c3cccnc3)c2)N=C1N` (centres unmarked) [Example 141, 4-[2-Amino-4-(4-fluoro-3-pyridin-3-ylphenyl)-1-methyl-5-oxo-4,5-dihydro-1H-imidazol-4-yl]phenyl trifluoromethanesulfonate 0.5 acetate], the 50% inhibitory concentration (IC50) was found to be 107 nM.
For the compound `COc1ccnc(-c2cc(C3(c4ccc(OS(C)(=O)=O)cc4)N=C(N)N(C)C3=O)ccc2F)c1` (centres unmarked) [Example 301, 4-{2-Amino-4-[4-fluoro-3-(4-methoxypyridin-2-yl)phenyl]-1-methyl-5-oxo-4,5-dihydro-1H-imidazol-4-yl}phenyl methanesulfonate 0.75 acetate], the IC50 is 53 nM.
For `CCCS(=O)(=O)Oc1ccc(C2(c3ccc(F)c(-c4cncc(OC)c4)c3)N=C(N)N(C)C2=O)cc1` (centres unmarked) [Example 129, 4-{2-Amino-4-[4-fluoro-3-(5-methoxypyridin-3-yl)phenyl]-1-methyl-5-oxo-4,5-dihydro-1H-imidazol-4-yl}phenyl propane-1-sulfonate hydrochloride], the IC50 is 35 nM.
Consider `COc1cc(OS(C)(=O)=O)cc(-c2cc(C3(c4ccnc(C)c4)N=C(N)N(C)C3=O)ccc2F)c1` (centres unmarked) [Example 211, 5′-[2-Amino-1-methyl-4-(2-methylpyridin-4-yl)-5-oxo-4,5-dihydro-1H-imidazol-4-yl]-2′-fluoro-5-methoxybiphenyl-3-yl methanesulfonate hydrocloride], for which the half-inhibitory concentration (IC50) worked out at 104 nM.
Take `COc1cc(OS(C)(=O)=O)cc(-c2cc(C3(c4ccccc4)N=C(N)N(C)C3=O)ccc2F)c1` (centres unmarked) [Example 84, 5′-(2-Amino-1-methyl-5-oxo-4-phenyl-4,5-dihydro-1H-imidazol-4-yl)-2′-fluoro-5-methoxybiphenyl-3-yl methanesulfonate]: the IC50 was determined as 159 nM.
Still for that read-out and setting: to `CN1C(=O)C(c2ccc(OS(C)(=O)=O)cc2)(c2ccnc(-c3cccnc3F)c2)N=C1N` (centres unmarked) [Example 29, 4-[2-Amino-4-(2′-fluoro-2,3′-bipyridin-4-yl)-1-methyl-5-oxo-4,5-dihydro-1H-imidazol-4-yl]phenyl methanesulfonate 0.25 acetate] belongs 387 nM; to `COc1cccc(-c2cc(C3(c4cccc(OS(=O)(=O)C(C)C)c4)N=C(N)N(C)C3=O)ccc2F)c1` (centres unmarked) [Example 108, 3-[2-Amino-4-(6-fluoro-3′-methoxybiphenyl-3-yl)-1-methyl-5-oxo-4,5-dihydro-1H-imidazol-4-yl]phenyl propane-2-sulfonate], 186 nM; to `CN1C(=O)C(c2ccc(OS(=O)(=O)C(F)(F)F)cc2)(c2ccc(F)c(-c3cncc(Cl)c3)c2)N=C1N` (centres unmarked) [Example 140, 4-{2-Amino-4-[3-(5-chloropyridin-3-yl)-4-fluorophenyl]-1-methyl-5-oxo-4,5-dihydro-1H-imidazol-4-yl}phenyl trifluoromethanesulfonate 0.75 acetate], 116 nM.
`CN1C(=O)C(c2cccc(OS(C)(=O)=O)c2)(c2ccc(F)c(-c3cncc(F)c3)c2)N=C1N` (centres unmarked) [Example 87, 3-{2-Amino-4-[4-fluoro-3-(5-fluoropyridin-3-yl)phenyl]-1-methyl-5-oxo-4,5-dihydro-1H-imidazol-4-yl}phenylmethanesulfonate]: the 50% inhibitory concentration (IC50) turned out to be 494 nM.
Consider `CN1C(=O)C(c2ccc(OS(=O)(=O)c3cn(C)cn3)cc2)(c2ccc(F)c(-c3cccnc3)c2)N=C1N` (centres unmarked) [Example 287, 4-[2-Amino-4-(4-fluoro-3-pyridin-3-ylphenyl)-1-methyl-5-oxo-4,5-dihydro-1H-imidazol-4-yl]phenyl 1-methyl-1H-imidazole-4-sulfonate], for which the half-maximal inhibitory concentration (IC50) stood at 1020 nM.
For the compound `COc1ccc(C2(c3ccc(F)c(-c4cncnc4)c3)N=C(N)N(C)C2=O)cc1OS(=O)(=O)C(F)(F)F` (centres unmarked) [Example 14, 5-[2-Amino-4-(4-fluoro-3-pyrimidin-5-ylphenyl)-1-methyl-5-oxo-4,5-dihydro-[H-imidazol-4-yl]-2-methoxyphenyl trifluoromethanesulfonate 0.5 acetate], the half-inhibitory concentration (IC50) stood at 59 nM.
Take `COc1cc(OS(C)(=O)=O)cc(-c2cccc(C3(c4cc(C)nc(C)c4)N=C(N)N(C)C3=O)c2)c1` (centres unmarked) [Example 305, 3′-(2-Amino-4-(2,6-dimethylpyridin-4-yl)-1-methyl-5-oxo-4,5-dihydro-1H-imidazo-4-yl)-5-methoxybiphenyl-3-yl methanesulfonate hydrochloride]: the half-maximal inhibitory concentration (IC50) came out at 101 nM.
With `COc1ccc(C#N)c(-c2cc(C3(c4ccc(OS(C)(=O)=O)cc4)N=C(N)N(C)C3=O)ccc2F)c1` (centres unmarked) [Example 167, 4-[2-Amino-4-(2′-cyano-6-fluoro-5′-methoxybiphenyl-3-yl)-1-methyl-5-oxo-4,5-dihydro-1H-imidazol-4-yl]phenyl methanesulfonate], the IC50 amounted to 46 nM.
On the same count and under the same terms, to `CN1C(=O)C(c2cccc(OS(=O)(=O)c3cn(C)cn3)c2)(c2ccc(F)c(-c3cncnc3)c2)N=C1N` (centres unmarked) [Example 243, 3-[2-Amino-4-(4-fluoro-3-pyrimidin-5-ylphenyl)-1-methyl-5-oxo-4,5-dihydro-1H-imidazol-4-yl]phenyl 1-methyl-1H-imidazole-4-sulfonate] belongs 26 nM; to `CN1C(=O)C(c2ccc(OS(=O)(=O)c3c(F)cccc3F)cc2)(c2ccc(F)c(-c3cncnc3)c2)N=C1N` (centres unmarked) [Example 278, 4-[2-Amino-4-(4-fluoro-3-pyrimidin-5-ylphenyl)-1-methyl-5-oxo-4,5-dihydro-1H-imidazol-4-yl]phenyl 2,6-difluorobenzenesulfonate], 65 nM.
As to `COc1cc(OS(C)(=O)=O)cc(-c2cccc(C3(c4ccnc(Cl)c4)N=C(N)N(C)C3=O)c2)c1` (centres unmarked) [Example 312, 2-Amino-5-(2-chloropyridin-4-yl)-5-[3-(3-methoxy-5-methylsulfonyloxy-phenyl)phenyl]-3-methyl-imidazol-4-one hydrochloride], the IC50 came to 26 nM.
Regarding `COc1ccc(C(C)=O)c(-c2cc(C3(c4ccc(OS(C)(=O)=O)cc4)N=C(N)N(C)C3=O)ccc2F)c1` (centres unmarked) [Example 289, 4-[4-(2′-Acetyl-6-fluoro-5′-methoxybiphenyl-3-yl)-2-amino-1-methyl-5-oxo-4,5-dihydro-1H-imidazol-4-yl]phenyl methanesulfonate], the IC50 is 115 nM.
For `CCN1C(=O)C(c2ccc(OS(C)(=O)=O)cc2)(c2ccc(F)c(-c3cc(Cl)cc(Cl)c3)c2)N=C1N` (centres unmarked) [Example 161, 4-[2-Amino-4-(3′,5′-dichloro-6-fluorobiphenyl-3-yl)-1-ethyl-5-oxo-4,5-dihydro-1H-imidazol-4-yl]phenyl methanesulfonate], the IC50 turned out to be 1680 nM.
On the same count and under the same terms, to `COc1cc(OS(C)(=O)=O)cc(-c2cc(C3(c4ccc(OC(F)F)cc4)N=C(N)N(C)C3=O)ccc2F)c1` (centres unmarked) [Example 69, 5′-{2-Amino-4-[4-(difluoromethoxy)phenyl]-1-methyl-5-oxo-4,5-dihydro-1H-imidazol-4-yl}-2′-fluoro-5-methoxybiphenyl-3-yl methanesulfonate hydrochloride] belongs 23 nM; to `CN1C(=O)C(c2cccc(OS(=O)(=O)c3ccc(Cl)s3)c2)(c2ccc(F)c(Br)c2)N=C1N` (centres unmarked) [Example 231, 3-[2-Amino-4-(3-bromo-4-fluorophenyl)-1-methyl-5-oxo-4,5-dihydro-1H-imidazol-4-yl]phenyl 5-chlorothiophene-2-sulfonate], 859 nM; to `CN1C(=O)C(c2ccc(OS(=O)(=O)c3c(Cl)nc4sccn34)cc2)(c2ccc(F)c(-c3cccnc3)c2)N=C1N` (centres unmarked) [Example 286], 68 nM.
For `CN1C(=O)C(c2cccc(OS(=O)(=O)c3c(F)cccc3F)c2)(c2ccc(F)c(-c3cncnc3)c2)N=C1N` (centres unmarked) [Example 236, 3-[2-Amino-4-(4-fluoro-3-pyrimidin-5-ylphenyl)-1-methyl-5-oxo-4,5-dihydro-1H-imidazol-4-yl]phenyl 2,6-difluorobenzenesulfonate], the IC50 came to 65 nM.
Regarding `Cc1nn(C)c(Cl)c1S(=O)(=O)Oc1cccc(C2(c3ccc(F)c(Br)c3)N=C(N)N(C)C2=O)c1` (centres unmarked) [Example 230, 3-[2-Amino-4-(3-bromo-4-fluorophenyl)-1-methyl-5-oxo-4,5-dihydro-1H-imidazol-4-yl]phenyl 5-chloro-1,3-dimethyl-1H-pyrazole-4-sulfonate], the IC50 is 129 nM.
